Tests used:
ALOMY [1] = assay: Pre-emergence herbicidal action against ALOMY; type: in vivo, Alopecurus myosuroides; details: 320 g/ha, scored visually after 3 weeks vs untreated controls
In short: (§1)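 Percent activity (0% = like control, 100% = dead) read visually after a 3-week greenhouse period. Application: aqueous WP or EC formulations sprayed onto soil covering sown seeds, water rate 600 to 800 L/ha with 0.2% wetting agent.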

AVEFA [2] = assay: Pre-emergence herbicidal action against AVEFA; type: in vivo, Avena fatua; details: 320 g/ha, scored visually after 3 weeks vs untreated controls
In short: as §1

DIGSA [3] = assay: Pre-emergence herbicidal action against DIGSA; type: in vivo, Digitaria sanguinalis; details: 320 g/ha, scored visually after 3 weeks vs untreated controls
In short: as §1

ECHCG [4] = assay: Pre-emergence herbicidal action against ECHCG; type: in vivo, Echinochloa crus-galli; details: 320 g/ha, scored visually after 3 weeks vs untreated controls
In short: as §1

LOLRI [5] = assay: Pre-emergence herbicidal action against LOLRI (Table 8, titled post-emergence at 320 g/ha); type: in vivo, Lolium rigidum; details: table stands in the pre-emergence section
In short: as §1

SETVI [6] = assay: Pre-emergence herbicidal action against SETVI; type: in vivo, Setaria viridis; details: 320 g/ha, scored visually after 3 weeks vs untreated controls
In short: as §1

AMARE = assay: Pre-emergence herbicidal action against AMARE; type: in vivo, Amaranthus retroflexus; details: 320 g/ha
Excerpt: (§2) Seeds of monocotyledonous and dicotyledonous weed plants and crop plants are laid out in sandy loam soil in wood-fiber pots and covered with soil. The compounds of the invention, formulated in the form of wettable powders (WP) or as emulsion concentrates (EC), are then applied to the surface of the covering soil as aqueous suspension or emulsion at a water application rate equating to 600 to 800 L/ha with addition of 0.2% wetting agent.
(§3) After the treatment, the pots are placed in a greenhouse and kept under good growth conditions for the trial plants. The damage to the test plants is scored visually after a test period of 3 weeks by comparison with untreated controls (herbicidal activity in percent (%): 100% activity=the plants have died, 0% activity=like control plants).

VIOTR = assay: Pre-emergence herbicidal action against VIOTR; type: in vivo, Viola tricolor; details: 320 g/ha
Excerpt: as §2, §3

VERPE = assay: Pre-emergence herbicidal action against VERPE; type: in vivo, Veronica persica; details: 320 g/ha
Excerpt: as §2, §3

ALOMY [7] = assay: Post-emergence herbicidal action against ALOMY; type: in vivo, Alopecurus myosuroides; details: 80 g/ha, visual assessment after about 3 weeks
In short: (§4)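 Greenhouse post-emergence test; one-leaf stage (2–3 wk post-sowing), sandy loam. Spray: WP/EC in water, 600–800 l/ha, 0.2% wetting agent, onto green parts. Visual rating ~3 wk later, % vs untreated (100% = dead, 0% = like control).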

AVEFA [8] = assay: Post-emergence herbicidal action against AVEFA; type: in vivo, Avena fatua; details: 80 g/ha, visual assessment after about 3 weeks
In short: as §4

DIGSA [9] = assay: Post-emergence herbicidal action against DIGSA; type: in vivo, Digitaria sanguinalis; details: 80 g/ha, visual assessment about 3 weeks after treatment vs untreated controls
In short: as §4

ECHCG [10] = assay: Post-emergence herbicidal action against ECHCG; type: in vivo, Echinochloa crus-galli; details: 80 g/ha, visual assessment about 3 weeks after treatment vs untreated controls
In short: as §4

LOLRI [11] = assay: Post-emergence herbicidal action against LOLRI; type: in vivo, Lolium rigidum; details: 80 g/ha, visual assessment about 3 weeks after treatment vs untreated controls
In short: as §4

SETVI [12] = assay: Post-emergence herbicidal action against SETVI; type: in vivo, Setaria viridis; details: 80 g/ha, visual assessment about 3 weeks after treatment vs untreated controls
In short: as §4

SMILES	Pre-emergence action against ALOMY in % (ALOMY [1]) [%]	Pre-emergence action against AVEFA in % (AVEFA [2]) [%]	Pre-emergence action against DIGSA in % (DIGSA [3]) [%]	Pre-emergence action against ECHCG in % (ECHCG [4]) [%]	Pre-emergence herbicidal action against LOLRI in % (LOLRI [5]) [%]	Pre-emergence action against SETVI in % (SETVI [6]) [%]	Pre-emergence action against AMARE in % (AMARE) [%]	Pre-emergence action against VIOTR in % (VIOTR) [%]	Pre-emergence action against VERPE in % (VERPE) [%]	Post-emergence action against ALOMY in % (ALOMY [7]) [%]	Post-emergence action against AVEFA in % (AVEFA [8]) [%]	Post-emergence action against DIGSA in % (DIGSA [9]) [%]	Post-emergence action against ECHCG in % (ECHCG [10]) [%]	Post-emergence action against LOLRI in % (LOLRI [11]) [%]	Post-emergence action against SETVI in % (SETVI [12]) [%]
C#CCOCC1CCC2(C1)NC(=O)C(c1c(C)cc(C#CC)cc1Cl)=C2OC(=O)OCC (stereo not drawn) [Example P-99]	100	100	100	100	100	100	100	100	100	100	80	90	100	90	100
CC#Cc1cc(C)c(C2=C(OC(=O)OCC)C3(CCC(COCCC)C3)NC2=O)c(OC)c1 (stereo not drawn) [Example P-83]	100	80	100	100	100	100	–	90	80	100	90	100	100	100	100
C=CCOCC1CCC2(C1)NC(=O)C(c1c(F)cc(C#CC)cc1OC)=C2OC(=O)OCC (stereo not drawn) [Example P-77]	100	90	100	100	100	100	–	100	80	90	–	80	100	–	100
CC#Cc1cc(C)c(C2=C(OC(=O)C(C)C)C3(CCC(COCC)C3)NC2=O)c(Br)c1 (stereo not drawn) [Example P-36]	100	80	100	90	100	100	–	100	80	100	–	90	90	–	100
CC#Cc1cc(C)c(C2=C(OC(=O)OCC)C3(CCC(COCC)C3)NC2=O)c(OC)c1 (stereo not drawn) [Example P-48]	100	100	100	100	100	100	–	100	80	100	90	100	100	100	100
C=CCOCC1CCC2(C1)NC(=O)C(c1c(C)cc(C#CC)cc1Br)=C2OC(=O)OCC (stereo not drawn) [Example P-85]	100	80	100	100	100	100	–	100	90	80	–	90	100	90	100
CC#Cc1cc(F)c(C2=C(OC(=O)OCC)C3(CCC(COCC)C3)NC2=O)c(OC)c1 (stereo not drawn) [Example P-69]	100	80	100	100	100	100	–	80	90	100	90	80	100	90	100
CC#Cc1cc(F)c(C2=C(OC(=O)C(C)C)C3(CCC(COCC)C3)NC2=O)c(OC)c1 (stereo not drawn) [Example P-67]	100	80	100	100	90	100	80	–	80	100	90	–	100	90	100
CC#Cc1cc(Br)c(C2=C(O)C3(CCC(COCC)C3)NC2=O)c(CC)c1 (stereo not drawn) [Example I-24]	–	–	–	–	–	–	–	–	80	–	–	–	–	–	–

Reference: patent publication US20220386606A1, “SPECIFICALLY SUBSTITUTED 3-PHENYL-5-SPIROCYCLOPENTYL-3-PYRROLIN-2-ONES AND THEIR USE AS HERBICIDES” (Bayer Aktiengesellschaft, priority 2019, published 2022)
